Assay results reported in patent US10730863B2, “Bridged bicyclic compounds as farnesoid X receptor modulators” (BRISTOL-MYERS SQUIBB COMPANY, priority 2017, dated 2020).

target: FXR (Homo sapiens (Human), UniProt Q96RI1); assay: FXR EC50 (FXR agonist activity reported with each example); assay type: cell-based
Sequence (Q96RI1 262-486): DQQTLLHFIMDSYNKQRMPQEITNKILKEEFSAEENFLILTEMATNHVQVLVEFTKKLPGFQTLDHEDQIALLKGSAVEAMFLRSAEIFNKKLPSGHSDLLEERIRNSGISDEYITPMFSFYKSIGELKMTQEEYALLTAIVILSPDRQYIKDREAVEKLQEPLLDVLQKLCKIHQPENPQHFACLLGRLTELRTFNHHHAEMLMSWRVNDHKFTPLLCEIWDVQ

Row | Compound | EC50 [nM]
1 | O=C(O)c1cccc2c1CCN(C(=O)C13CCC(OCc4c(-c5c(Cl)cccc5Cl)noc4C4CC4)(CC1)CC3)C2 [Example 139, 2-(4-((5-cyclopropyl-3-(2,6-dichlorophenyl)isoxazol-4-yl)methoxy)bicyclo[2.2.2]octane-1-carbonyl)-1,2,3,4-tetrahydroisoquinoline-5-carboxylic acid] | 1400
2 | O=C(O)c1ccc(F)c(-c2noc(C34CCC(OCc5c(-c6c(Cl)cncc6Cl)noc5C5CC5)(CC3)CC4)n2)c1 [Example 461, 3-(5-(4-((5-cyclopropyl-3-(3,5-dichloropyridin-4-yl)isoxazol-4-yl)methoxy)bicyclo[2.2.2]octan-1-yl)-1,2,4-oxadiazol-3-yl)-4-fluorobenzoic acid] | 190
3 | CS(=O)(=O)c1cc(C(=O)O)nc2ccc(OCC34CCC(OCc5c(-c6c(Cl)cncc6Cl)noc5C5CC5)(CC3)CC4)cc12 [Example 332, 6-((4-((5-cyclopropyl-3-(3,5-dichloropyridin-4-yl)isoxazol-4-yl)methoxy)bicyclo[2.2.2]octan-1-yl)methoxy)-4-(methylsulfonyl)quinoline-2-carboxylic acid] | 830
4 | O=C(O)c1cccc(CC(O)C23CCC(OCc4c(-c5c(Cl)cccc5Cl)noc4C4CC4)(CC2)CC3)c1 (stereo not shown) [Example 127, 3-(2-(4-((5-cyclopropyl-3-(2,6-dichlorophenyl)isoxazol-4-yl)methoxy)bicyclo[2.2.2]octan-1-yl)-2-hydroxyethyl)benzoic acid] | 280
5 | O=C(O)c1cncc(-c2noc(C34CCC(OCc5c(-c6ccccc6OC(F)(F)F)noc5C5CC5)(CC3)CC4)n2)c1 [Example 44] | 870
6 | O=C(O)c1c(F)ccc2nc(C34CCC(OCc5c(-c6c(Cl)cncc6Cl)noc5C5CC5)(CC3)CC4)sc12 [Example 512, 2-(4-((5-cyclopropyl-3-(3,5-dichloropyridin-4-yl)isoxazol-4-yl)methoxy)bicyclo[2.2.2]octan-1-yl)-6-fluorobenzo[d]thiazole-7-carboxylic acid] | 43
7 | O=C(O)c1cc(NC(=O)C23CCC(OCc4c(-c5c(Cl)cncc5Cl)noc4C4CC4)(CC2)CC3)cc(C(F)(F)F)c1 [Example 433, 3-(4-((5-cyclopropyl-3-(3,5-dichloropyridin-4-yl)isoxazol-4-yl)methoxy)bicyclo[2.2.2]octane-1-carboxamido)-5-(trifluoromethyl)benzoic acid] | 1300
8 | CC(C)Oc1cc(OCC23CCC(OCc4c(-c5c(Cl)cncc5Cl)noc4C4CC4)(CC2)CC3)cnc1C(=O)O [Example 334, 5-((4-((5-cyclopropyl-3-(3,5-dichloropyridin-4-yl)isoxazol-4-yl)methoxy)bicyclo[2.2.2]octan-1-yl)methoxy)-3-isopropoxypicolinic acid] | 21
9 | O=C(O)c1cccc(C23CCC(COCc4c(-c5c(Cl)cncc5Cl)noc4C4CC4)(CC2)CO3)c1 [Example 511, 3-(4-(((5-cyclopropyl-3-(3,5-dichloropyridin-4-yl)isoxazol-4-yl)methoxy)methyl)-2-oxabicyclo[2.2.2]octan-1-yl)benzoic acid] | 2900
10 | O=C(O)c1cnc(OCC23CCC(OCc4c(-c5c(Cl)cncc5Cl)noc4C4CC4)(CC2)CC3)cc1C(F)(F)F [Example 283] | 15
11 | O=C(O)c1cccc(-c2noc(C34CCC(OCc5c(-c6ccccc6C(F)(F)F)noc5C5CC5)(CC3)CC4)n2)n1 [Example 48] | 2100
12 | Clc1cccc(Cl)c1-c1noc(C2CC2)c1COCC12CCC(c3cccc(-c4nnn[nH]4)c3)(CC1)OC2 [Example 220, 4-(((1-(3-(1H-tetrazol-5-yl)phenyl)-2-oxabicyclo[2.2.2]octan-4-yl)methoxy)methyl)-5-cyclopropyl-3-(2,6-dichlorophenyl)isoxazole] | 870
13 | COc1cc(C(=O)O)c(OC)c(-c2noc(C34CCC(OCc5c(-c6c(Cl)cncc6Cl)noc5C5CC5)(CC3)CC4)n2)c1 [Example 246, 3-(5-(4-((5-cyclopropyl-3-(3,5-dichloropyridin-4-yl)isoxazol-4-yl)methoxy)bicyclo[2.2.2]octan-1-yl)-1,2,4-oxadiazol-3-yl)-2,5-dimethoxybenzoic acid] | 90
14 | O=C(O)c1cc(-c2noc(C34CCC(OCc5c(-c6c(Cl)cccc6Cl)noc5C5CC5)(CC3)CC4)n2)ccc1F [Example 64, 5-(5-(4-((5-Cyclopropyl-3-(2,6-dichlorophenyl)isoxazol-4-yl)methoxy)bicyclo[2.2.2]octan-1-yl)-1,2,4-oxadiazol-3-yl)-2-fluorobenzoic acid] | 140
15 | O=C(O)c1ccc(O)c2nc(C34CCC(OCc5c(-c6c(Cl)cncc6Cl)noc5C5CC5)(CC3)CC4)ccc12 [Example 407] | 19
16 | O=C(O)c1cccc(-c2noc(C34CCC(OCc5c(-c6ccccc6OC(F)(F)F)noc5C5CC5)(CC3)CC4)n2)n1 [Example 47] | 550
17 | Cc1cc(OCC23CCC(/C=C/c4c(-c5c(Cl)cncc5Cl)noc4C4CC4)(CC2)CC3)c2cc(C(=O)O)cc(F)c2n1 [Example 447, (E)-4-((4-(2-(5-cyclopropyl-3-(3,5-dichloropyridin-4-yl)isoxazol-4-yl)vinyl)bicyclo[2.2.2]octan-1-yl)methoxy)-8-fluoro-2-methylquinoline-6-carboxylic acid] | 2400

Row | Compound | EC50 [nM]
18 | O=C(O)c1csc(C23CCC(COCc4c(-c5c(Cl)cccc5Cl)noc4C4CC4)(CC2)CO3)n1 [Example 216] | 2000
19 | Cn1nc(-c2nc(C34CCC(OCc5c(-c6c(Cl)cccc6Cl)noc5C5CC5)(CC3)CC4)no2)cc1C(=O)O [Example 70, 3-(3-(4-((5-Cyclopropyl-3-(2,6-dichlorophenyl)isoxazol-4-yl)methoxy)bicyclo[2.2.2]octan-1-yl)-1,2,4-oxadiazol-5-yl)-1-methyl-1H-pyrazole-5-carboxylic acid] | 430
20 | COc1cncc(Cl)c1-c1noc(C2CC2)c1COC12CCC(COc3cc(C)c(C(=O)O)cn3)(CC1)CC2 [Example 119, 6-((4-((3-(3-chloro-5-methoxypyridin-4-yl)-5-cyclopropylisoxazol-4-yl)methoxy)bicyclo[2.2.2]octan-1-yl)methoxy)-4-methylnicotinic acid] | 120
21 | CCn1nc(OCC23CCC(OCc4c(-c5c(Cl)cncc5Cl)noc4C4CC4)(CC2)CC3)cc1C(=O)O [Example 316] | 64
22 | COC(=O)c1cc(OC(F)F)cc(-c2noc(C34CCC(/C=C/c5c(-c6c(Cl)cncc6Cl)noc5C5CC5)(CC3)CC4)n2)c1 [Example 443, (E)-methyl 3-(5-(4-(2-(5-cyclopropyl-3-(3,5-dichloropyridin-4-yl)isoxazol-4-yl)vinyl)bicyclo[2.2.2]octan-1-yl)-1,2,4-oxadiazol-3-yl)-5-(difluoromethoxy)benzoate] | 49
23 | O=C(O)c1ccc2cc(OCC34CCC(OCc5c(-c6c(Cl)cncc6Cl)noc5C5CC5)(CC3)CC4)ccc2n1 [Example 115, 6-((4-((5-cyclopropyl-3-(3,5-dichloropyridin-4-yl)isoxazol-4-yl)methoxy)bicyclo[2.2.2]octan-1-yl)methoxy)quinoline-2-carboxylic acid] | 52
24 | COc1cc(OCC23CCC(OCc4c(-c5c(Cl)cncc5Cl)noc4C4CC4)(CC2)CC3)ccc1C(=O)O [Example 358] | 52
25 | COc1ccc(-c2nc(C34CCC(OCc5c(-c6c(Cl)cncc6Cl)noc5C5CC5)(CC3)CC4)c[nH]2)cc1C(=O)O [Example 259, 5-(4-(4-((5-cyclopropyl-3-(3,5-dichloropyridin-4-yl)isoxazol-4-yl)methoxy)bicyclo[2.2.2]octan-1-yl)-1H-imidazol-2-yl)-2-methoxybenzoic acid] | 5500
26 | O=C(O)c1cc(-c2nc(C34CCC(OCc5c(-c6c(Cl)cccc6Cl)noc5C5CC5)(CC3)CC4)no2)ccn1 [Example 22, 4-(3-(4-((5-cyclopropyl-3-(2,6-dichlorophenyl)isoxazol-4-yl)methoxy)bicyclo[2.2.2]octan-1-yl)-1,2,4-oxadiazol-5-yl)picolinic acid] | 210
27 | COc1ccc(-c2noc(C34CCC(OCc5c(-c6ccccc6C(F)(F)F)noc5C5CC5)(CC3)CC4)n2)cc1C(=O)O [Example 31] | 370
28 | Cn1cc(C(=O)O)c2ccc(OCC34CCC(OCc5c(-c6ccccc6OC(F)(F)F)noc5C5CC5)(CC3)CC4)cc21 [Example 84] | 320
29 | O=C(O)C1CC1c1noc(CC23CCC(OCc4c(-c5c(Cl)cncc5Cl)noc4C4CC4)(CC2)CC3)n1 (stereo not shown) [Example 272, 2-(5-((4-((5-cyclopropyl-3-(3,5-dichloropyridin-4-yl)isoxazol-4-yl)methoxy)bicyclo[2.2.2]octan-1-yl)methyl)-1,2,4-oxadiazol-3-yl)cyclopropane-1-carboxylic acid] | 400
30 | CCCc1cc(C(=O)O)nc2c(F)cc(OCC34CCC(OCc5c(-c6c(Cl)cncc6Cl)noc5C5CC5)(CC3)CC4)cc12 [Example 309, 6-((4-((5-cyclopropyl-3-(3,5-dichloropyridin-4-yl)isoxazol-4-yl)methoxy)bicyclo[2.2.2]octan-1-yl)methoxy)-8-fluoro-4-propylquinoline-2-carboxylic acid] | 13
31 | O=C(O)c1ccc(F)c(C(O)C23CCC(OCc4c(-c5c(Cl)cccc5Cl)noc4C4CC4)(CC2)CC3)c1 (stereo not shown) [Example 121, 3-((4-((5-cyclopropyl-3-(2,6-dichlorophenyl)isoxazol-4-yl)methoxy)bicyclo[2.2.2]octan-1-yl)(hydroxy)methyl)-4-fluorobenzoic acid] | 1500
32 | COC(=O)c1cccc(NC(=O)C23CCC(C=Cc4c(-c5c(Cl)cccc5Cl)noc4C4CC4)(CC2)CC3)c1 [Example 187] | 3000
33 | O=C(O)c1cccc(OCC23CCC(COCc4c(-c5c(Cl)cccc5Cl)noc4C4CC4)(CC2)CC3)c1 [Example 484, 3-((4-(((5-cyclopropyl-3-(2,6-dichlorophenyl)isoxazol-4-yl)methoxy)methyl)bicyclo[2.2.2]octan-1-yl)methoxy)benzoic acid] | 200
34 | Cn1cc(C(=O)O)c2ccc(OCC34CCC(OCc5c(-c6c(Cl)cccc6Cl)noc5C5CC5)(CC3)CC4)cc21 [Example 90, 6-((4-((5-cyclopropyl-3-(2,6-dichlorophenyl)isoxazol-4-yl)methoxy)bicyclo[2.2.2]octan-1-yl)methoxy)-1-methyl-1H-indole-3-carboxylic acid] | 11
